Assay results as given in patent US20180250261A1, “METHOD FOR TREATING CANCER WITH A STAT3 PATHWAY INHIBITOR AND KINASE INHIBITOR” (BOSTON BIOMEDICAL, INC., priority 2015, published 2018).

Tests used:
p-STAT3 = target: T1, p-STAT3 (Homo sapiens, UniProt P40763); test: immunofluorescence staining of SW480 xenograft tissue, p-STAT3; assay type: in vivo; conditions: nude mice, oral daily, 14 doses, Compound A 100 mg/kg, Compound B 50 mg/kg, FIG. 6A
T1 construct: from tissue; host or cells: human SW480 colon cancer xenograft tumours grown in female nude mice

STK33 = target: T2, STK33 (Homo sapiens, UniProt Q9BYT3); test: immunofluorescence staining of SW480 xenograft tissue, STK33; assay type: in vivo; conditions: nude mice, oral daily, 14 doses, Compound A 100 mg/kg, Compound B 50 mg/kg, FIG. 6B
T2 construct: from tissue; host or cells: human SW480 colon cancer xenograft tumours grown in female nude mice
Experimental: (§1) The effect of a treatment combination of Compound A and Compound B on the levels of various pharmacodynamic (PD) markers for the agents in vivo was studied. A mouse xenograft model of human colon cancer (SW480) was used.
(§2) Levels of STK33 and Nanog were examined using immunofluorescence staining of the xenograft tissue. Female nude mice were inoculated subcutaneously with 8×10^6 human SW480 colon cancer cells. Animals were treated orally daily with vehicle, Compound A (100 mg/kg), Compound B (50 mg/kg), or Compound A and Compound B (100 mg/kg and 50 mg/kg, respectively) for a total of 14 doses. At the end of treatment, the tumors were harvested from euthanized mice. Part of the dissected tumors were fixed overnight in 3.7% neutral buffered formaldehyde at 4° C., and then paraffin embedded, cut to four micron sections, and affixed onto positively charged slides. After being baked and deparaffinized, the slides with tumor or control tissues were incubated in 10mM pH6.0 sodium citrate solution for antigen retrieval at 98° C. […] After being mounted with ProLong mounting medium containing DAPI (Invitrogen), the slides were examined on a Zeiss Axis Imager M2 upright fluorescence microscope with a 20× objective and analyzed with Zen software.

Nanog = test: immunofluorescence staining of SW480 xenograft tissue, Nanog; assay type: in vivo, human; conditions: nude mice, oral daily, 14 doses, Compound A 100 mg/kg, Compound B 50 mg/kg, FIG. 6B
Experimental: as §1, §2

STAT3 pathway = conditions: according to U.S. Pat. No. 8,877,803; read-out: STAT3 pathway activity, cellular IC50; cited from earlier work

T2 sequence (Q9BYT3 whole entry): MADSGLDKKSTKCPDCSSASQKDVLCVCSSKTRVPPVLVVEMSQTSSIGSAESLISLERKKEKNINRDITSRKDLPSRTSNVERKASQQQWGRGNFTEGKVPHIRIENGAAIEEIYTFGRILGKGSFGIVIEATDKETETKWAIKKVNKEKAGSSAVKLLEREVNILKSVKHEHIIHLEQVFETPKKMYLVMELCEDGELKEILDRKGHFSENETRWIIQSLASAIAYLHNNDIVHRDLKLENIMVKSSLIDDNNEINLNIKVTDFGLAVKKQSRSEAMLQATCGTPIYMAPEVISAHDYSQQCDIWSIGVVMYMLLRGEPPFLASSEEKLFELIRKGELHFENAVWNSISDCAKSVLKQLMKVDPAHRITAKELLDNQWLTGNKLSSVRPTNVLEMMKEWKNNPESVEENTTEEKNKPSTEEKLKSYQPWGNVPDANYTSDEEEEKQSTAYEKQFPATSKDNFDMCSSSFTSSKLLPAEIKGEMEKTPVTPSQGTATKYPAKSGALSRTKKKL
T1 sequence (P40763 whole entry): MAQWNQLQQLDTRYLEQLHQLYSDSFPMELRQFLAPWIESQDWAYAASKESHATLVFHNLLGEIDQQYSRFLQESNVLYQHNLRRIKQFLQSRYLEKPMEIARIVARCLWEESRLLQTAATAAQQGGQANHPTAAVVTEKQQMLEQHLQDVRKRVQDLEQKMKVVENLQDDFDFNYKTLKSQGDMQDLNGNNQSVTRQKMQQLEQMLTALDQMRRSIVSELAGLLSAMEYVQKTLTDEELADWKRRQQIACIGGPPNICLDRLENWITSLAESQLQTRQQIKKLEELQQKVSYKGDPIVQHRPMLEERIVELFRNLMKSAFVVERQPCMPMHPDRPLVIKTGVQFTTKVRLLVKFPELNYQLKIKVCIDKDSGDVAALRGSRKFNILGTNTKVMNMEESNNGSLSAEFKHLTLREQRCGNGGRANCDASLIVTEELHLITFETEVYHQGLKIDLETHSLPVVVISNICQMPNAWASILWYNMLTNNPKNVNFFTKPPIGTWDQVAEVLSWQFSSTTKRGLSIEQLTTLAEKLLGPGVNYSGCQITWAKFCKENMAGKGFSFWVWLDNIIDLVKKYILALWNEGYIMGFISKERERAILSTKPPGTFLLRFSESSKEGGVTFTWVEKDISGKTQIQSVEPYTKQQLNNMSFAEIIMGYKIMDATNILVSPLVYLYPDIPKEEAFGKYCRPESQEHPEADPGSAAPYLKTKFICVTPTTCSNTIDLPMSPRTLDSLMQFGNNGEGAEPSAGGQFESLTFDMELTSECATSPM

cellular levels of p-STAT3 in xenograft tissue (p-STAT3)	cytoplasmic levels of STK33 in xenograft tissue (STK33)	nuclear levels of STK33 in xenograft tissue (STK33)	Compound	cytoplasmic levels of Nanog in xenograft tissue (Nanog)	IC50 (STAT3 pathway)	nuclear levels of Nanog in xenograft tissue (Nanog)
significantly reduced	reduced		CC(=O)c1cc2c(o1)C(=O)c1ccccc1C2=O [Compound A, 2-acetylnaphtho[2,3-b]furan-4,9-dione]	reduced	~0.25 µM	
		reduced	CCN(CC)CCNC(=O)c1c(C)[nH]c(/C=C2\C(=O)Nc3ccc(-c4csc(-c5ccccc5)n4)cc32)c1C [Compound B]			reduced
